Source: US20060035889A1, “Treatment for methamphetamine addiction and reduction of methamphetamine use using serotonin antagonists” (priority 2004, published 2006)

Legend:
D2 = D2 (Homo sapiens, UniProt P14416); details: read-out: receptor affinity (Ki) D2; cited from earlier work
5-HT3 = biological target: T1, 5-HT3 (Homo sapiens, UniProt P46098); details: read-out: receptor affinity (Ki) 5-HT3; cited from earlier work
T1 sequence (P46098 24-478): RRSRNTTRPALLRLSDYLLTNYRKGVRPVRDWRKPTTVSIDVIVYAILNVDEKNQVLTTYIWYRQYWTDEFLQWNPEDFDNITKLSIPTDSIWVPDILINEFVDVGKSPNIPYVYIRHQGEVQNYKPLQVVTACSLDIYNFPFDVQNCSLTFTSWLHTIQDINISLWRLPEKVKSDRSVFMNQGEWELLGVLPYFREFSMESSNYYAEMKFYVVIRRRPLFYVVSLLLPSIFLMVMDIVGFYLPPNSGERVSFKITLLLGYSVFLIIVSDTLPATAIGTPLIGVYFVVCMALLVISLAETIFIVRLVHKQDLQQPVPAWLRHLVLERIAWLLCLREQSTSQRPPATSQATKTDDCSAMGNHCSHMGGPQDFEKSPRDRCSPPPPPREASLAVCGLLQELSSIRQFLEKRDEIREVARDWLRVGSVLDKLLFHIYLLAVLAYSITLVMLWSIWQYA

METH-conditioned rats = test: METH-induced conditioned place preference (CPP) with simultaneous motor sensitization; assay type: in vivo, rat
Source text: The CPP box (Accuscan, Columbus, Ohio) consists of three Plexiglas compartments, each with distinct visual and tactile cues (on one side, patterned floor with object attached and horizontally striped wall; on the opposite side, smooth floor with no object and vertically striped walls; center—uniformly white floor and walls). The center compartment can be separated from the left and right compartments by removable guillotine doors. Motor activity in three dimensional space, and time spent, in each compartment is detected by two sets of photobeams set at different heights from the floor. Drug conditioning is performed by administering METH to the rat while it is in one compartment, and on the alternating day, saline is administered while the rat is confined to the opposite compartment. Confinement was achieved by blocking access to other compartments using the guillotine door. The center compartment is not seen by the rat during conditioning, and all conditioning sessions last for 45 min.
The inventors have determined that the number of METH-pairings, and the dose of METH, dictate the strength of the drug-environment association (i.e., the magnitude of salience attribution). The test for CPP is determined in a METH-free state (i.e., at least 48 hr after that last METH pairing), at which time the rats are placed in the center compartment and allowed free access to all compartments for 30 min, and the time spent in each compartment is the index of preference. The inventors have determined that the number of METH-pairings, and the dose of METH, dictate the strength of the drug-environment association (i.e., the magnitude of salience attribution) and thus the amount of time spent in the compartment previously paired with METH (FIG. 7), as well as persistence of this effect (i.e., how long it lasts; FIG. 8A). METH-induced motor sensitization can be assessed in several ways, including assessing the capacity of the rat to express an enhanced motor response to an acute METH challenge (FIGS. 9 & 10A).
To efficiently apply this approach to testing of 5-HT2A/2C antagonists, we determined that single pairing protocols of the CPP paradigm can be used to predict efficacy outcomes of 5-HT2A/2C antagonists in long-term tests on these drugs evaluating their capacity to nullify the persistent enhanced salience induced by METH. […] Thus, these protocols should help predict the capacity of novel therapeutic targets to halt a common problem of drug relapse, i.e., the ability of re-exposure to drugs like METH to immediately reinstate their abuse.

Chain of D2 (P14416 whole entry): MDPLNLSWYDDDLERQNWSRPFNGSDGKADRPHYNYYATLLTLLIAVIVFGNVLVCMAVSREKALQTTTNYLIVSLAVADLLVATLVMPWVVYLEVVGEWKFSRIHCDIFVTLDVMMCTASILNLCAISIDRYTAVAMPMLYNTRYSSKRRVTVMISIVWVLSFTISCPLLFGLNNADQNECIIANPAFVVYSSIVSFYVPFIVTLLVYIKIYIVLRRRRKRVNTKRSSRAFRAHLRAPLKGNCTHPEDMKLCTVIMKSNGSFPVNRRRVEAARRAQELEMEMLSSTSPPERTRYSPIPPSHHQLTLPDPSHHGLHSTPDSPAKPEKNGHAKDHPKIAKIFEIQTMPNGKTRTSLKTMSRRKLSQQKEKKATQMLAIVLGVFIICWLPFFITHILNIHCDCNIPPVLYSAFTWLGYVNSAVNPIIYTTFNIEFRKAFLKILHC

For `CN1CCN2c3ncccc3Cc3ccccc3[C@@H]2C1` (racemic) [mirtazapine, 1,2,3,4,10,14b-hexahydro-2-methyl-pyrazino[2,1-a]pyrido[2,3-c]benzazepine], which Ki (D2) is on record?
The Ki was greater than 1000 nM.

What about the Ki (5-HT3) of the same compound?
Its Ki is 8 nM.

And the “preference to the place previously paired with METH (CPP expression)” value (METH-conditioned rats; 3 pairings 1 mg/kg ip METH, ten once-daily 5 mg/kg ip mirtazapine during withdrawal, day 20 (FIG. 8B))?
Its value is “completely reverse”.

What about the “associated motor sensitization (number of rears)” value (METH-conditioned rats; mirtazapine during METH withdrawal, METH challenge day 22 (FIG. 10B)) of the same compound?
Its value is “completely reverse”.

And the “ability of subsequent METH pairings to induce CPP (reinstatement)” value (METH-conditioned rats; repeated mirtazapine during withdrawal, day 25 (FIG. 12))?
Its value is “renders ineffective”.

What about the “CPP expression after single pairing of 1.0 mg/kg METH” value (METH-conditioned rats; single home cage injection 0.5, 1.0 or 5.0 mg/kg mirtazapine 24 h before test (FIG. 11)) of the same compound?
Its value is “reversal of METH-induced CPP”.
